Data reported in ChEMBL document CHEMBL4152312, “Identification of fused pyrimidines as interleukin 17 secretion inhibitors” (Eur J Med Chem, 2018).

Tests used:
[1] = molecular target: Tyrosine-protein kinase ABL1 (Homo sapiens) (UniProt P00519); assay: Inhibition of recombinant human full length His-tagged ABL1 expressed in baculovirus expression system at 500 nM by Z-LYTE assay relative to control
[2] = molecular target: Tyrosine-protein kinase BTK (Homo sapiens) (UniProt Q06187); assay: Inhibition of recombinant human full length His-tagged BTK expressed in baculovirus expression system at 500 nM by Z-LYTE assay relative to control
[3] = molecular target: T1, Calcium/calmodulin-dependent protein kinase type IV (Homo sapiens) (UniProt Q16566); assay: Inhibition of recombinant human full length GST-tagged CAMK4 expressed in Escherichia coli at 500 nM by Z-LYTE assay relative to control
T1 sequence (whole entry): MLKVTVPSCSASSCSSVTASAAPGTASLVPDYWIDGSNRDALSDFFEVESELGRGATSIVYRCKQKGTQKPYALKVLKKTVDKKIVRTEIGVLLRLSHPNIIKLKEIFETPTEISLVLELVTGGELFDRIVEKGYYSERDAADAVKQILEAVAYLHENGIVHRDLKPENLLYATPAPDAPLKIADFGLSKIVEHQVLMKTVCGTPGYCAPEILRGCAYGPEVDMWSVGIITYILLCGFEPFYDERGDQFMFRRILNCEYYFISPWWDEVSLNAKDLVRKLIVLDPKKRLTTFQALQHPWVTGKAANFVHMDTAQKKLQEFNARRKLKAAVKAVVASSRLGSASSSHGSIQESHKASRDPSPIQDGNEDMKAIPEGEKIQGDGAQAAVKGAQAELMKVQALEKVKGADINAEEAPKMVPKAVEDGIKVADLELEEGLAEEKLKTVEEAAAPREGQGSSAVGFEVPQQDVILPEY

[4] = molecular target: Receptor-type tyrosine-protein kinase FLT3 (Homo sapiens) (UniProt P36888); assay: Inhibition of recombinant human His-tagged FLT3 cytoplasmic domain (564 to 958 residues) expressed in baculovirus expression system at 500 nM by Z-LYTE assay relative to control
[5] = molecular target: Glycogen synthase kinase-3 beta (Homo sapiens) (UniProt P49841); assay: Inhibition of recombinant full-length human His-tagged GSK3beta expressed in baculovirus expression system at 500 nM by Z-LYTE assay relative to control
[6] = molecular target: T2, Inhibitor of nuclear factor kappa-B kinase subunit beta (Homo sapiens) (UniProt O14920); assay: Inhibition of recombinant full-length human GST-tagged IKKbeta expressed in baculovirus expression system at 500 nM by Z-LYTE assay relative to control
T2 sequence (whole entry): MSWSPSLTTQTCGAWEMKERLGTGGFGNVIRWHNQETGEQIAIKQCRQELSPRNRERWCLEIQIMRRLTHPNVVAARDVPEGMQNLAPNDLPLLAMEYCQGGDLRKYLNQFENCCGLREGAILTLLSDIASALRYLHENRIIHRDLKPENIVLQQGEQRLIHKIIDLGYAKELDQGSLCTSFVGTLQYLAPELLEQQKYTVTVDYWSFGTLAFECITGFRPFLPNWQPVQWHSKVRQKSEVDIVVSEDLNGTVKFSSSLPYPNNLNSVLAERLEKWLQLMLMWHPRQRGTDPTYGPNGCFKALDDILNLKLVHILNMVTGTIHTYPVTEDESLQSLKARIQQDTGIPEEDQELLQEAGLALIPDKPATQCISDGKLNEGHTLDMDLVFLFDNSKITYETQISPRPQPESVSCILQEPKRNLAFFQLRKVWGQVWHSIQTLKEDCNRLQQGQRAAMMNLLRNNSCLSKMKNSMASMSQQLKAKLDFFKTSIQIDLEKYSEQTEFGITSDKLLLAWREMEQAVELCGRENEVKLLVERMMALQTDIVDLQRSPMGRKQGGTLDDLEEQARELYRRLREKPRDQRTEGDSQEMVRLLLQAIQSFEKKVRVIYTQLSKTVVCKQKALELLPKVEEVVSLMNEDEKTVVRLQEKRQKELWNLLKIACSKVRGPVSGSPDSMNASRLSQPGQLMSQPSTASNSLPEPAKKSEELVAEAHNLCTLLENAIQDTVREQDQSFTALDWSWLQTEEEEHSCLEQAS

[7] = molecular target: Mast/stem cell growth factor receptor Kit (Homo sapiens) (UniProt P10721); assay: Inhibition of recombinant human His-tagged KIT cytoplasmic domain (544 to 976 residues) expressed in baculovirus expression system at 500 nM by Z-LYTE assay relative to control
[8] = molecular target: T3, Dual specificity mitogen-activated protein kinase kinase 6 (Homo sapiens) (UniProt P52564); assay: Inhibition of recombinant human full length His-tagged MKK6 expressed in baculovirus expression system at 500 nM by Z-LYTE assay relative to control
T3 sequence (whole entry): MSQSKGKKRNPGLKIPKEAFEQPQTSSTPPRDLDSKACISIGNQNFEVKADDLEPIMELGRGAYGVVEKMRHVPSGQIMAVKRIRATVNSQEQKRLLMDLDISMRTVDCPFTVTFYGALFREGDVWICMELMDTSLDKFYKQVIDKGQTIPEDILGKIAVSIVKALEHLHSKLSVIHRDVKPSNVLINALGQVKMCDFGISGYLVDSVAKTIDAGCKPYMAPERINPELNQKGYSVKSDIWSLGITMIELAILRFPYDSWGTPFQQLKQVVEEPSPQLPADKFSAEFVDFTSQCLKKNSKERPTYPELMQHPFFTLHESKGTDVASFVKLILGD

[9] = molecular target: Mitogen-activated protein kinase 8 (Homo sapiens) (UniProt P45983); assay: Inhibition of recombinant human full length His-tagged JNK1 expressed in baculovirus expression system at 500 nM by Z-LYTE assay relative to control
[10] = molecular target: Hepatocyte growth factor receptor (Homo sapiens) (UniProt P08581); assay: Inhibition of recombinant truncated human His-tagged MET expressed in mammalian expression system at 500 nM by Z-LYTE assay relative to control
[11] = molecular target: PI3K p110 beta/p85 alpha (Homo sapiens) (UniProt P27986+P42338); assay: Inhibition of PI3K p110beta/p85alpha (unknown origin) at 500 nM by Z-LYTE assay relative to control; assay type: protein-complex assay
[12] = molecular target: Phosphatidylinositol 4,5-bisphosphate 3-kinase catalytic subunit gamma isoform (Homo sapiens) (UniProt P48736); assay: Inhibition of recombinant full length human His-tagged PI3K p110ggamma at 500 nM by Z-LYTE assay relative to control
[13] = molecular target: Proto-oncogene tyrosine-protein kinase receptor Ret (Homo sapiens) (UniProt P07949); assay: Inhibition of recombinant human GST-tagged RET cytoplasmic domain expressed in baculovirus expression system at 500 nM by Z-LYTE assay relative to control
[14] = molecular target: Rho-associated protein kinase 1 (Homo sapiens) (UniProt Q13464); assay: Inhibition of recombinant human GST-tagged ROCK1 cytoplasmic domain expressed in baculovirus expression system at 500 nM by Z-LYTE assay relative to control
[15] = molecular target: Proto-oncogene tyrosine-protein kinase Src (Homo sapiens) (UniProt P12931); assay: Inhibition of human full length Src expressed in baculovirus expression system at 500 nM by Z-LYTE assay relative to control

Mitogen-activated protein kinase 8 (Homo sapiens), sequence (P45983 whole entry, the tested form may be a part): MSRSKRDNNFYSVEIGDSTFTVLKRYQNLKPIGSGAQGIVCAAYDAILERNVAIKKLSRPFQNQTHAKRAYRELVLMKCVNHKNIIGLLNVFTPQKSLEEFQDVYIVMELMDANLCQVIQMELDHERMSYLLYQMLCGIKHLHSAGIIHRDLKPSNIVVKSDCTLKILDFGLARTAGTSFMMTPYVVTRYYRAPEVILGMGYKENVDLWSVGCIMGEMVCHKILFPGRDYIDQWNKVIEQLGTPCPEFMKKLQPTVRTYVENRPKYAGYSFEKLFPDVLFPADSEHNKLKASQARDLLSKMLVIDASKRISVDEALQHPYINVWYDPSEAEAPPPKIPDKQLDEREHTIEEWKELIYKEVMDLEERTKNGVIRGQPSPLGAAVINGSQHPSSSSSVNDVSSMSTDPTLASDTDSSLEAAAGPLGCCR
Phosphatidylinositol 4,5-bisphosphate 3-kinase catalytic subunit gamma isoform (Homo sapiens), sequence (P48736 whole entry, looked up, the tested form may be a part, canonical isoform): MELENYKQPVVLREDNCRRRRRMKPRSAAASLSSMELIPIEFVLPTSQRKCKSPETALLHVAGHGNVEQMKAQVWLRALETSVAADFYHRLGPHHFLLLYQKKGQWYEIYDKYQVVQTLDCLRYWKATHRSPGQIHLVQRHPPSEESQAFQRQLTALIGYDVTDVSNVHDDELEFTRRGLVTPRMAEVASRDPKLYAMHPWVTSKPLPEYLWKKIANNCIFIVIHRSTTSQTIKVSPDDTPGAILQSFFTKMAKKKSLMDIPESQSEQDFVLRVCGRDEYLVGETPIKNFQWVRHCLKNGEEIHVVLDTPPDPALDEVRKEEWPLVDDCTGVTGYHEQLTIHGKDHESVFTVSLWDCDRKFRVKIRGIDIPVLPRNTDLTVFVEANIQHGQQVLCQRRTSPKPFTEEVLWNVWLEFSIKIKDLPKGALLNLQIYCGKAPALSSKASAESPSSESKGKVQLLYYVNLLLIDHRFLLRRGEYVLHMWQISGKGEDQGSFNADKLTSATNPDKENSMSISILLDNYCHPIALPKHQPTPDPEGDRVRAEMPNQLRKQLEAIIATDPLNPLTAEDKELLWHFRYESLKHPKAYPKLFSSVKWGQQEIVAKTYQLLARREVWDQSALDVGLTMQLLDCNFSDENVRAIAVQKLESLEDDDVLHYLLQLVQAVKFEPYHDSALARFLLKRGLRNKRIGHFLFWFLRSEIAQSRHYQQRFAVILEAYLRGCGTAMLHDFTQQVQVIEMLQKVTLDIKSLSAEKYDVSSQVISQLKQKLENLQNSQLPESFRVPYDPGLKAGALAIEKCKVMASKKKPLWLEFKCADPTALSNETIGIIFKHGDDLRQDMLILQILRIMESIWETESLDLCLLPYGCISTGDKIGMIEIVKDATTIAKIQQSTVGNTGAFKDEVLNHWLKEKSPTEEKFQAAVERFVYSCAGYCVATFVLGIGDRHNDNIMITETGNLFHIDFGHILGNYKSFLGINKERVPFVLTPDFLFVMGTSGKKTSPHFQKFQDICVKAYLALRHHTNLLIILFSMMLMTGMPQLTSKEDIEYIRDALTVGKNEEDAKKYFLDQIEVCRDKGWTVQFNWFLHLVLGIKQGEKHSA
Rho-associated protein kinase 1 (Homo sapiens), sequence (Q13464 2-1354 limits assumed): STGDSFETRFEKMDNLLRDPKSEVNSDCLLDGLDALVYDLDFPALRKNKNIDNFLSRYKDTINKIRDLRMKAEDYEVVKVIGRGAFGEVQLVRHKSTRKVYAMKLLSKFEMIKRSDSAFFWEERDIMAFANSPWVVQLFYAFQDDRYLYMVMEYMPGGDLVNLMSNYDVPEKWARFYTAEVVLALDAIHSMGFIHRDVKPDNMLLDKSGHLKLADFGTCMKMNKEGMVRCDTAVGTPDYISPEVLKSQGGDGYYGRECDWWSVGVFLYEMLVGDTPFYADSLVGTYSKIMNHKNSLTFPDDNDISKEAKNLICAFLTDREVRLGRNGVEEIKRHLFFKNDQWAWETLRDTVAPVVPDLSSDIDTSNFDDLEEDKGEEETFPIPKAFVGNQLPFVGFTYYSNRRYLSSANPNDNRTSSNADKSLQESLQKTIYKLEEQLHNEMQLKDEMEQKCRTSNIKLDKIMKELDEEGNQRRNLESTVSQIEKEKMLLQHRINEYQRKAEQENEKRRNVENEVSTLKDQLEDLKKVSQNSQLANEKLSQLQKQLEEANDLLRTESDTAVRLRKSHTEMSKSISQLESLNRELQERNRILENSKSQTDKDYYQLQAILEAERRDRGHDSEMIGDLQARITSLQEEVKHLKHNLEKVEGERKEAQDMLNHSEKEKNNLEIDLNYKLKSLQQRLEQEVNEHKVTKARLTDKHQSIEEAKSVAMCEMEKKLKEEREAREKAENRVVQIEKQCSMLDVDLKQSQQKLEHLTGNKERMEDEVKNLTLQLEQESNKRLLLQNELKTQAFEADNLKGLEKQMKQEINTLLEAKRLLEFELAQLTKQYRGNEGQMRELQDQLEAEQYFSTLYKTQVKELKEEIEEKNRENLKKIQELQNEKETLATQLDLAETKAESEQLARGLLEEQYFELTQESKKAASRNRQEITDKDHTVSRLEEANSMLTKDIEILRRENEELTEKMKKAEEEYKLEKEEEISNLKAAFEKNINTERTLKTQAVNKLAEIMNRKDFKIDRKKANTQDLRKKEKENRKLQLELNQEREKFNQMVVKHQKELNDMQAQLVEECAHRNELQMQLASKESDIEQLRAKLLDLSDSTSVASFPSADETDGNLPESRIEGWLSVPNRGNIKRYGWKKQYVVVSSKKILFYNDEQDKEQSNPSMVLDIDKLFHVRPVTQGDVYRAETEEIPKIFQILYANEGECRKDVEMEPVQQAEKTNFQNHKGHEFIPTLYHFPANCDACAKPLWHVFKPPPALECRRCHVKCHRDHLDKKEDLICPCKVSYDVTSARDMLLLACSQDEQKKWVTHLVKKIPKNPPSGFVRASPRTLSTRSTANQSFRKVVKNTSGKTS
Receptor-type tyrosine-protein kinase FLT3 (Homo sapiens), sequence (P36888 whole entry, the tested form may be a part): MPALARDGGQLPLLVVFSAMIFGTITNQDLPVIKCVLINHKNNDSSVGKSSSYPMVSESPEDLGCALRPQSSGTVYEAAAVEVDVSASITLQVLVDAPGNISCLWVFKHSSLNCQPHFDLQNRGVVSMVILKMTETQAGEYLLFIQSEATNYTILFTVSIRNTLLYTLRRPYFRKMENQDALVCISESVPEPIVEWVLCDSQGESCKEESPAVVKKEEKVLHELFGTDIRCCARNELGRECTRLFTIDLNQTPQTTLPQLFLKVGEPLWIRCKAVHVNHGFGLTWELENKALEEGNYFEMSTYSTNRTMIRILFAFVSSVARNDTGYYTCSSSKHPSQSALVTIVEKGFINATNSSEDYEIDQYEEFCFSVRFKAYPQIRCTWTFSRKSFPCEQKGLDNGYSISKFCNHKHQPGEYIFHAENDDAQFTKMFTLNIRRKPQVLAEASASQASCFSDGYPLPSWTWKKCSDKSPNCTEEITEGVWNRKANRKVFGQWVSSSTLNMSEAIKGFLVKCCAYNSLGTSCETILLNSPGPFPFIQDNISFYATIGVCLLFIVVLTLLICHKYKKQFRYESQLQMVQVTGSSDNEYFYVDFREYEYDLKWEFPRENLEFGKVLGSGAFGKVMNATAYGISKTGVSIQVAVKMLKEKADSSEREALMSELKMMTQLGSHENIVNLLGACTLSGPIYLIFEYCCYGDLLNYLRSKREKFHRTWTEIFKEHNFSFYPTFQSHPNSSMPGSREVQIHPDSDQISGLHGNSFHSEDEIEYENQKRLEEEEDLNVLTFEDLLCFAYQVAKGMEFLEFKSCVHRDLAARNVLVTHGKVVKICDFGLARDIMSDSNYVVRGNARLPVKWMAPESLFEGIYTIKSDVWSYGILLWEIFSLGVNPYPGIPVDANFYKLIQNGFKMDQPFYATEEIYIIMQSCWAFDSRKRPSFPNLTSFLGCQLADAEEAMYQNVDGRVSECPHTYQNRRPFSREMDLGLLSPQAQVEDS
Mast/stem cell growth factor receptor Kit (Homo sapiens), sequence (P10721 whole entry, the tested form may be a part): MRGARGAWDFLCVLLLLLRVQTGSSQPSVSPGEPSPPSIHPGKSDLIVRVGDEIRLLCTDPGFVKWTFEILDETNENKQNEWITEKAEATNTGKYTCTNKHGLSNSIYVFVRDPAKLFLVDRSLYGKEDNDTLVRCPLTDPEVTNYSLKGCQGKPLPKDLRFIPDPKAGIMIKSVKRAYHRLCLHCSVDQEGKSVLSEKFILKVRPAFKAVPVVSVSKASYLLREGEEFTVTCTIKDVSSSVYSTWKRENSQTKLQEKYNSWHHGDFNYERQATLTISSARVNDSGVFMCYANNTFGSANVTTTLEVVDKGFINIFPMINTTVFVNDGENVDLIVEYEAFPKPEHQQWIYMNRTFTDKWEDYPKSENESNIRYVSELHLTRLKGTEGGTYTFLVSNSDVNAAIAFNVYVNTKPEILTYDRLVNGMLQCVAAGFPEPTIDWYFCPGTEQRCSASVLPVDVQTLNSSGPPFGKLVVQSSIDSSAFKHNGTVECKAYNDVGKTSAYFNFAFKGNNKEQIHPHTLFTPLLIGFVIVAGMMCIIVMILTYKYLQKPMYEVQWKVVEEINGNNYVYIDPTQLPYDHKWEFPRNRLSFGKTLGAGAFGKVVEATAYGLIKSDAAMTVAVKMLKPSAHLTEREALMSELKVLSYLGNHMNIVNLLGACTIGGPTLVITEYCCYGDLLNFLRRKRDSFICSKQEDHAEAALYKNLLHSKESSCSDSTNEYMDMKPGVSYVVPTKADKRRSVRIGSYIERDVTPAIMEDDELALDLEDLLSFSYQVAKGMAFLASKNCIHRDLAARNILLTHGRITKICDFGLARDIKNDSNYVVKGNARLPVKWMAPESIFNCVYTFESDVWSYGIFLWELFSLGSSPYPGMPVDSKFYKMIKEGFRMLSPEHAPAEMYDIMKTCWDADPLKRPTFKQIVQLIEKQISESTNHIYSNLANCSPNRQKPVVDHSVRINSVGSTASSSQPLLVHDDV

Row | Structure (SMILES) | inhibition [1] [%] | inhibition [2] [%] | inhibition [3] [%] | inhibition [4] [%] | inhibition [5] [%] | inhibition [6] [%] | inhibition [7] [%] | inhibition [8] [%] | inhibition [9] [%] | inhibition [10] [%] | inhibition [11] [%] | inhibition [12] [%] | inhibition [13] [%] | inhibition [14] [%] | inhibition [15] [%]
1 | OC[C@@H](Nc1ncnc2sc(-c3ccc(O)cc3)cc12)c1ccccc1 | 8 | 5 | -9 | 16 | 6 | 12 | 15 | 11 | 19 | 1 | 1 | -2 | 12 | 4 | 
2 | OCc1ccc(-c2cc3c(N[C@H](CO)c4ccccc4)ncnc3[nH]2)cc1 | 84 | 9 | 6 | 43 | 10 | 11 | -1 | 3 | -3 | 14 | 4 | 4 | 41 | -1 | 74
3 | CN(C)CCn1cc(-c2cccc(O)c2)c2c(N)ncnc21 | 69 | 62 | 2 | 38 | 7 | 7 | -2 | 5 | 3 | 4 | 12 | 5 | 93 | 17 | 55
4 | CCC(=O)Nc1ccc(-c2c[nH]c3ncnc(N[C@H](C)c4ccccc4)c23)cc1 | 5 | 3 | 5 | 42 | 31 | 14 | -3 | 8 | 4 | 6 | 11 | 1 | 23 | 3 | 16
